{"source": "patent US20250275995A1", "about": "“NICOTINAMIDE RIBOSIDE DOSAGE REGIMEN FOR TREATING PARKINSON'S DISEASE” (VESTLANDETS INNOVASJONSSELSKAP AS (VIS), priority 2022, published 2025)", "key": {"[1]": {"tested_on": "blood NAD levels", "settings": "cited from earlier work"}, "[2]": {"tested_on": "NAD metabolome", "test": "NADPARK: metabolomics, RNA-sequencing and cytokines in blood, muscle, CSF", "format": "in vivo, human", "settings": "NR 1000 mg daily", "protocol": "A-C: 31P-MRS was performed at baseline (v1) and after 30 days of treatment (v2). A: exemplary data from one subject showing voxel position. Spectra were acquired for each grid position. B (top): average processed spectra from multiple voxels (black) and the model fit (red). B (bottom): the model fit is composed of the convolution of all spectral contributions of a simulated dataset fitted to the experimental data. […] PCr: phosphocreatine. C: comparison of cerebral NAD levels in the placebo (PL) and NR groups at baseline (v1) and visit-2 (v2). […] Individual subjects are indicated by dots. Connecting lines show the change between v1 and v2. The black points and lines show the mean of each group. […] D: FDG-PET data from all subjects in the NR-group, showing the mean NR-Related Pattern (NRRP, top panel), PD-related pattern (PRDP, middle panel), and the overlap of the two (bottom panel). NR partially ameliorates the striatal and thalamic hypermetabolism of PD. E: Between visit changes showing increased NRRP expression in the NR versus the placebo group. The red line indicates mean values before and after the treatment, black lines indicate individuals with a positive NAD response in the MRS analysis, grey lines indicate individuals without an NAD response in the MRS (*p=0.027, permutation test, 1000 iterations). […] G: Metabolomics in PBMCs, muscle, and CSF.\nNR has widespread metabolic and regulatory effects. […] These findings indicate that NR supplementation increases both mitochondrial respiration and proteostasis—two hallmark pathogenic processes involved in PD."}, "[3]": {"tested_on": "brain NAD levels", "test": "NAD-brain pharmacokinetic study: brain NAD by 31P-MRS", "format": "in vivo, human", "settings": "1200 mg daily for 8 days", "protocol": "• At screening, participants are assessed for eligibility, inclusion/exclusion criteria, medical history and concomitant medication is recorded, and informed consent signed. • The NAD-brain study performs a parallel assessment of NAD replenishment therapy pharmacokinetics in the blood and brain of healthy human subjects and subjects with Parkinson's disease (PD). Healthy individuals and individuals with PD undergo repeated blood sampling and 31P-MRS brain scans during two 20-day periods, each of which starts with 8 days of daily intake of NR 600 mg×2, or NMN 600 mg×2 (Table 10). • For each 20-day period the testing (i.e., scanning and blood draw) frequency is shown in Table 10, below. The two 20-day periods are 14 days apart to allow for washout of the previous compound. This is a pharmacokinetic (PK) study where 6 healthy individuals (3 male and 3 female): • 1) Received NR 1200 mg daily (600 mg×2) for 8 days, followed by an additional 11 days follow up, while undergoing serial blood and brain NAD-measurement. • 2) Received NMN 1200 mg daily (600 mg×2) for 8 days, followed by an additional 11 days follow up, while undergoing serial blood and brain NAD-measurement. The individuals were mixed, so that in stage-1 three individuals received NR and three individuals received NMN, then in stage-2 they switched (Cross-over design). There were almost three weeks (20 days) of washout between the last dose of the first compound, and before the first dose of the second compounds. In the brain, total NAD (NAD^++NADH) levels were measured by 31P-MRS as previously described^19. […] 19 Brakedal, B. et al. The […] study: A randomized phase I trial of nicotinamide riboside supplementation in Parkinson's disease. Cell Metab 34, 396-407.e6 (2022)."}, "[4]": {"tested_on": "NAD metabolome", "test": "NR-SAFE: LC-MS metabolomics of whole blood and urine", "format": "in vivo, human", "protocol": "Sample analysis was carried out by MS-Omics (Vedbok, Denmark) as follows: Polar metabolite profiling of whole blood and urine was performed using a Thermo Scientific Vanquish LC coupled to Thermo Q Exactive HF MS. An electrospray ionization interface was used as ionization source. Analysis was performed in negative and positive ionization mode. The UPLC was performed using a slightly modified version of the protocol described by Hsiao et al. 2018^14. Peak areas were extracted using Compound Discoverer 3.3 (Thermo Scientific). 14 Hsiao, J. J., Potter, O. G., Chu, T. W. & Yin, H. Improved LC/MS Methods for the Analysis of Metal-Sensitive Analytes Using Medronic Acid as a Mobile Phase Additive. Anal Chem 90, 9457-9464 (2018).\nSemi-polar metabolite analysis of whole blood was carried out using a Thermo Scientific Vanquish LC coupled to Orbitrap Exploris 240 MS, Thermo Fisher Scientific. An electrospray ionization interface was used as ionization source. Analysis was performed in positive and negative ionization mode under polarity switching. The UPLC was performed using a slightly modified version of the protocol described by Doneanu et al., 2011^15. Peak areas were extracted using Compound Discoverer 3.3 (Thermo Scientific). 15 Doneanu, C. E. UPLC/MS Monitoring of Water-Soluble Vitamin Bs in Cell Culture Media in Minutes (Application note). https://www.waters.com/waters/library.htm?locale=en US&lid=134636355 (2011).\nIdentification of compounds for both methods was performed at four levels; Level 1: identification by retention times (compared against in-house authentic standards), accurate mass (with an accepted deviation of 3 ppm), and MS/MS spectra; Level 2a: identification by retention times (compared against in-house authentic standards), accurate mass (with an accepted deviation of 3 ppm). Level 2b: identification by accurate mass (with an accepted deviation of 3 ppm), and MS/MS spectra, Level 3: identification by accurate mass alone (with an accepted deviation of 3 ppm)."}, "[5]": {"tested_on": "NAD metabolome", "test": "NR-SAFE: NAD and glutathione metabolites in frozen whole blood (NADMed assay)", "format": "in vivo, human", "protocol": "Analysis was carried out by NADMed (Helsinki, Finland; www.nadmed.com). NAD and glutathione metabolites were extracted from frozen blood in a single step using a proprietary extraction procedure, and each metabolite was measured individually using optimized cyclic enzymatic assays with colorimetric detection."}, "[6]": {"settings": "LC-MS, V1 to V7, 3000 mg NR daily"}, "[7]": {"settings": "LC-MS, V1 to V7, NR group, 3000 mg NR daily"}, "[8]": {"settings": "NADMed assay, V1 to V7, 3000 mg NR daily"}}, "note": "“Also recorded” adds a separate entry of the source.", "data": [{"smiles": "NC(=O)c1ccc[n+]([C@@H]2O[C@H](CO)[C@@H](O)[C@H]2O)c1", "note": "[NR, nicotinamide riboside]", "values": [{"measurement": "blood NAD levels in a 24h-period after intake", "setting": "[1]; 1000 mg NR after increasing NR doses twice daily for nine days", "value": "stably increased"}, {"measurement": "blood NAD levels 23.8 h after intake", "setting": "[1]; 1000 mg NR, single subject", "value": "decreased, but not yet to baseline"}, {"measurement": "time of peak blood NAD levels after intake", "setting": "[1]; 1000 mg NR, single subject", "value": 7.7, "unit": "h"}, {"measurement": "increase of blood NAD^+ levels", "setting": "[1]; 1000 mg or 2000 mg NR daily, reported studies", "value": "1.37-2.8 fold"}, {"measurement": "NAD-related metabolites in blood (PBMC), muscle and CSF", "setting": "[2]; 30 days, metabolomics", "value": "highly significant (p<<0.001 for all tests) increases in the acid form of NAD (NAAD), and nicotinamide (Nam) degradation products; also recorded: highly significant increase in NAD-related metabolites in blood, muscle and CSF"}, {"measurement": "RNA-sequencing in blood and muscle biopsy", "setting": "[2]; NR group", "value": "highly significant (FDR<10^−8) upregulation of the mitochondrial, proteasomal and lysosomal pathways"}, {"measurement": "inflammatory cytokines in the central nervous system", "setting": "[2]; Phase I study", "value": "downregulates multiple inflammatory cytokines in the central nervous system"}, {"measurement": "brain NAD levels, baseline vs day of maximal blood NAD", "setting": "[3]; 31P-MRS, day 9 (NR), day 8 (NMN)", "value": "significant increase in brain NAD levels"}, {"measurement": "NAD levels at day 19", "setting": "[3]; 11 days after last dose", "value": "remained elevated"}, {"measurement": "urine NAD-related metabolites (NAR, Nam, Me-Nam, Me-2-PY, Nam N-oxide)", "setting": "[4]; [6]", "value": "increase in several NAD-related metabolites"}, {"measurement": "whole blood ADP-ribose (ADPR)", "setting": "[4]; [6]", "value": "increase in NAD-derived signaling molecules such as ADP-ribose (ADPR)"}, {"measurement": "whole blood ATP, GTP, ADP, AMP, adenosine and GDP", "setting": "[4]; [6]", "value": "unchanged"}, {"measurement": "whole blood Nam, Nam N-oxide, Me-Nam, Me-2-PY", "setting": "[4]; [6]", "value": "increased as well"}, {"measurement": "whole blood nicotinamide mononucleotide (NMN)", "setting": "[4]; [6]", "value": "elevated levels"}, {"measurement": "whole blood nicotinic acid adenine dinucleotide (NAAD)", "setting": "[4]; [6]", "value": "elevated"}, {"measurement": "NR itself in urine", "setting": "[4]; [7]", "value": "did not change significantly"}, {"measurement": "NR itself in whole blood", "setting": "[4]; [7]", "value": "did not increase"}, {"measurement": "whole blood HCy, SAM, SAH, SAM/SAH ratio, methionine", "setting": "[4]; LC-MS, V1 vs V7, 3000 mg NR daily", "value": "did not detect a change"}, {"measurement": "depletion of the methyl-group pool", "setting": "[4]; NR 3000 mg for 4 weeks", "value": "does not cause depletion of the methyl-group pool"}, {"measurement": "whole blood NAD^+ and NADP^+ levels", "setting": "[4]; targeted LC-MS, V1 to V7, 3000 mg NR daily", "value": "significant increase in whole blood NAD^+ and NADP^+ levels"}, {"measurement": "whole blood homocysteine (HCy)", "setting": "[4]; targeted metabolomics, V1 vs V7, 3000 mg NR daily", "value": "did not show any HCy elevation"}, {"measurement": "whole blood methionine levels", "setting": "[4]; untargeted metabolomics, 3000 mg NR daily", "value": "unaffected"}, {"measurement": "whole blood betaine", "setting": "[4]; untargeted metabolomics, NR group, 3000 mg NR daily", "value": "decreased slightly"}, {"measurement": "increase in whole blood NAD^+ levels", "setting": "[5]; 3000 mg NR daily, 4 weeks", "value": "~3.7", "unit": "fold"}, {"measurement": "increase in whole blood NAD^+ levels, range", "setting": "[5]; 3000 mg NR daily, 4 weeks, range across individuals", "value": "1.8-5.8 fold"}, {"measurement": "increase in blood NAD^+ levels (maximum)", "setting": "[5]; 3000 mg NR daily, 4 weeks, summary statement", "value": "up to 5 fold"}, {"measurement": "whole blood GSH and GSSG", "setting": "[5]; [8]", "value": "remained unchanged"}, {"measurement": "whole blood NADH level", "setting": "[5]; [8]", "value": "marked increase"}, {"measurement": "whole blood NADP^+ and total NADP levels", "setting": "[5]; [8]", "value": "increase in NADP^+ and total NADP levels"}, {"measurement": "whole blood NADP^+/NADPH ratio", "setting": "[5]; [8]", "value": "trend towards increased NADP^+/NADPH ratio"}, {"measurement": "whole blood NAD^+ level", "setting": "[5]; [8]", "value": "marked increase"}, {"measurement": "whole blood NAD^+/NADH ratio", "setting": "[5]; [8]", "value": "overall elevated NAD^+/NADH ratio"}]}]}
